The values that follow come from the NIST ThermoML archive (doi:10.1021/je200327s).

For data set [1] the following is noted: 101.3 kPa, Liquid, Vibrating tube method.
The nature of data set [2]: xn = mol fraction of the nth substance listed. The conditions noted are these: 101 kPa, Liquid, Vibrating tube method.

Molecules are shown by their SMILES. Numbers after ± are expanded uncertainties.

Consider `CCCCCCCCCCCC` [dodecane], for which the mass density (usually mass per unit of volume) worked out at 745.15 ± 0.24 kg/m3 in data set [1] (298.2 K) and 734.325 ± 0.24 kg/m3 in data set [1] (313.2 K).

In the case of `CCCCCCCCC` [nonane], the mass density in data set [1] (298.2 K) came to 713.938 ± 0.36 kg/m3.

In the case of `CCCCC` [pentane], the mass density in data set [1] (298.2 K) is 624.932 ± 0.3 kg/m3.

On to `CCCCCC` [hexane], for which the mass density in data set [1] (298.2 K) is given as 655.039 ± 2.1 kg/m3.

For `CCCCCCCCCCC` [undecane], the results for the mass density in data set [1] (298.2 K) and in data set [1] (313.2 K) were 736.786 ± 0.34 kg/m3 and 725.693 ± 0.35 kg/m3, respectively.

`CCCCCCCCCC` [decane]: the mass density is on record as 726.1 ± 0.4 kg/m3 in data set [1] (298.2 K) and 714.726 ± 0.35 kg/m3 in data set [1] (313.2 K).

As for `C1CCCCC1` [cyclohexane], the mass density in data set [1] (298.2 K) is reported as 773.849 ± 0.27 kg/m3.

On to `CC(C)CC(C)(C)C` [2,2,4-trimethylpentane], for which the mass density in data set [1] (298.2 K) was determined as 687.721 ± 0.28 kg/m3; in data set [1] (313.2 K), 675.225 ± 0.29 kg/m3.

For the compound `CCCCCCCC` [octane], the mass density is 698.569 ± 1.4 kg/m3 in data set [1] (298.2 K) and 686.365 ± 1.3 kg/m3 in data set [1] (313.2 K).

Consider `CCCCCCC` [heptane], for which the mass density in data set [1] (298.2 K) is reported as 679.857 ± 0.36 kg/m3.

For `Cc1cccc2c1sc1ccccc12` [4-methyldibenzothiophene] + CCCCCCCCCCCC, the mass density in data set [2] (298.2 K, x1 = 0.0062) is recorded as 747.197 ± 0.24 kg/m3; in data set [2] (298.2 K, x1 = 0.012), 749.098 ± 0.24 kg/m3; in data set [2] (298.2 K, x1 = 0.018) it was 751.069 ± 0.24 kg/m3; in data set [2] (298.2 K, x1 = 0.0242) it was 753.104 ± 0.25 kg/m3; in data set [2] (298.2 K, x1 = 0.0302), 755.131 ± 0.25 kg/m3; in data set [2] (298.2 K, x1 = 0.0526), 762.606 ± 0.26 kg/m3. The mass density in data set [2] (298.2 K, x1 = 0.0863) was determined as 774.082 ± 0.28 kg/m3; in data set [2] (298.2 K, x1 = 0.133) it was 790.24 ± 0.32 kg/m3; in data set [2] (313.2 K, x1 = 0.0062), 736.26 ± 0.25 kg/m3; in data set [2] (313.2 K, x1 = 0.012), 738.169 ± 0.25 kg/m3; in data set [2] (313.2 K, x1 = 0.018) it was 740.129 ± 0.25 kg/m3; in data set [2] (313.2 K, x1 = 0.0242), 742.156 ± 0.25 kg/m3. Further, the mass density in data set [2] (313.2 K, x1 = 0.0302) is 744.204 ± 0.25 kg/m3; in data set [2] (313.2 K, x1 = 0.0526) it was 751.621 ± 0.26 kg/m3; in data set [2] (313.2 K, x1 = 0.0863) it was 763.057 ± 0.28 kg/m3; in data set [2] (313.2 K, x1 = 0.133), 777.581 ± 0.32 kg/m3; in data set [2] (313.2 K, x1 = 0.2685) it was 827.245 ± 0.51 kg/m3.

For the compound `c1ccc2c(c1)sc1ccccc12` [dibenzothiophene] + CCCCCCCCCC, the mass density is recorded as 727.461 ± 0.35 kg/m3 in data set [2] (298.2 K, x1 = 0.0034); 728.541 ± 0.35 kg/m3 in data set [2] (298.2 K, x1 = 0.0061); 729.331 ± 0.35 kg/m3 in data set [2] (298.2 K, x1 = 0.0082); 732.459 ± 0.35 kg/m3 in data set [2] (298.2 K, x1 = 0.0162); 736.262 ± 0.35 kg/m3 in data set [2] (298.2 K, x1 = 0.0259); 738.412 ± 0.35 kg/m3 in data set [2] (298.2 K, x1 = 0.0314). Further, the mass density in data set [2] (313.2 K, x1 = 0.0034) is recorded as 716.064 ± 0.35 kg/m3; in data set [2] (313.2 K, x1 = 0.0061), 717.143 ± 0.35 kg/m3; in data set [2] (313.2 K, x1 = 0.0082), 717.957 ± 0.35 kg/m3; in data set [2] (313.2 K, x1 = 0.0162) it was 721.088 ± 0.35 kg/m3; in data set [2] (313.2 K, x1 = 0.0259), 724.901 ± 0.35 kg/m3; in data set [2] (313.2 K, x1 = 0.0314), 727.044 ± 0.36 kg/m3.

Take `Cc1cccc2c1sc1c(C)cccc12` [4,6-dimethyldibenzo[b,d]thiophene] + CCCCCCCCCCCC: the mass density in data set [2] (298.2 K, x1 = 0.0031) amounted to 746.102 ± 0.24 kg/m3; in data set [2] (298.2 K, x1 = 0.0053) it was 746.82 ± 0.24 kg/m3; in data set [2] (298.2 K, x1 = 0.0076) it was 747.546 ± 0.24 kg/m3; in data set [2] (313.2 K, x1 = 0.0031), 735.193 ± 0.24 kg/m3; in data set [2] (313.2 K, x1 = 0.0053) it was 735.931 ± 0.24 kg/m3; in data set [2] (313.2 K, x1 = 0.0076) it was 736.664 ± 0.24 kg/m3.
